Calls of active or inactive are those of the source. The rule behind the calls is not given here.

For experiment [1], the target named is Alpha-synuclein (Homo sapiens) (UniProt P37840). The experiment in a line: Inhibition of human alpha-synuclein aggregation expressed in transgenic Caenorhabditis elegans NL5901 assessed as decrease in alpha-synuclein expression at 1% after 48 hrs by fluorescence microscopy analysis.
For experiment [2] the target is unchanged. The experiment in a line: Inhibition of human alpha-synuclein aggregation expressed in transgenic Caenorhabditis elegans NL5901 by measuring fluorescence intensity at 1% incubated for 48 hrs by fluorescence microscopy analysis relative to control.

Broadly, the inhibition is the share of the control response that was lost under treatment. Regarding `CCOC(=O)c1cnc2c(cnn2-c2ccccc2)c1Oc1cccc2cccnc12`, the inhibition result in experiment [1] was “Active”. In experiment [2], this compound gave an inhibition of 24.4%.

For `CCOC(=O)c1cnc2c(cnn2-c2ccccc2)c1N1CCOCC1`, in experiment [1], the inhibition result was “Active”. This compound gave an inhibition in experiment [2] of 30.2%.

As to `CCOC(=O)c1cnc2c(cnn2-c2ccccc2)c1N1CCN(C)CC1`, the inhibition result in experiment [1] is “Active”. In experiment [2], this compound showed a fold change (FC) of 2.4 and an inhibition of 53%.

Turning to `CCOC(=O)c1cnc2c(cnn2-c2ccc(F)c(F)c2)c1N1CCN(c2ncccc2C#N)CC1`, the inhibition result in experiment [1] was “Active”. The compound also yielded an inhibition in experiment [2] of 13.5%.

`CCOC(=O)c1cnc2c(cnn2-c2ccccc2)c1N1CCN(c2cc(=O)[nH]c3ccccc23)CC1`: in experiment [1], the inhibition entry is “Active”. In addition, in experiment [2], the inhibition turned out to be 14.7%.

As to `CCOC(=O)c1cnc2c(cnn2-c2ccccc2)c1N1CCCCC1`, the inhibition result in experiment [1] is “Active”. In experiment [2], this compound came in with a fold change (FC) of 1.5 and an inhibition of 47.7%.

As to `CCOC(=O)c1cnc2c(cnn2-c2ccccc2)c1N1CCN(c2cc(C(F)(F)F)nc3ncnn23)CC1`, the inhibition entry in experiment [1] is “Active”. Besides, in experiment [2], the inhibition was found to be 14.1%.

For `CCOC(=O)c1cnc2c(cnn2-c2ccccc2)c1N1CCN(c2ncccc2C#N)CC1`, the inhibition result in experiment [1] is “Active”. The inhibition in experiment [2] amounted to 33.1%.

In the case of `CCOC(=O)c1cnc2c(cnn2-c2ccccc2)c1N1CCN(S(=O)(=O)c2ccc(NC(C)=O)cc2)CC1`, the inhibition result in experiment [1] is “Active”. In experiment [2], this compound came in with an inhibition of 17.7%.

In the case of `CCOC(=O)c1cnc2c(cnn2-c2cccc(C(F)(F)F)c2)c1N1CCN(c2ncccc2C#N)CC1`, the inhibition result in experiment [1] was “Active”. Besides, the inhibition in experiment [2] was found to be 27.3%.

Take `CCOC(=O)c1cnc2c(cnn2-c2ccccc2F)c1N1CCN(c2ncccc2C#N)CC1`: the inhibition entry in experiment [1] was “Active”. The inhibition in experiment [2] stood at 26.1%.

With `CCOC(=O)c1cnc2c(cnn2-c2ccccc2)c1N1CCN(c2cc(C)nc3ncnn23)CC1`, in experiment [1], the inhibition entry is “Active”. The compound further yielded an inhibition in experiment [2] of 31.9%.

As for `CCOC(=O)c1cnc2c(cnn2-c2ccccc2)c1N1CCN(c2ccnc3cc(Cl)ccc23)CC1`, the inhibition entry in experiment [1] was “Active”. In experiment [2], this compound had a fold change (FC) of 1.7 and an inhibition of 39.2%.

Source of the values: ChEMBL document CHEMBL4725335, “Deciphering the robustness of pyrazolo-pyridine carboxylate core structure-based compounds for inhibiting α-synuclein in transgenic C. elegans model of Synucleinopathy” (Bioorg Med Chem, 2020).
